Data set [1] is described as follows: Cyclic voltammetry of redox couples in alkaline electrolyte. The settings on record: for reduction potential: vs. mercury/mercuric oxide reference electrode (MMO). In kind it is physicochemical. From the text:
The redox couples must be soluble in the alkaline electrolyte and must can undergo facile electron transfer.
The reduction potential for this couple in alkaline electrolyte is about −0.35 V vs. MMO.
While these compounds are not suitable for operation in acidic media because of the attendant polymerization reactions, these compounds perform well in alkaline media. […] The reduction potentials are quite negative relative to the last example of DHA. Consequently, this may be combined with AQDS to form a redox flow battery.
The electrochemical reversibility of such a Michael addition-resistant compound is shown in FIG. 29 for benzenedi-hydroxy tetracarboxylic acid also called hydroquinonetetracarboxylic acid (HQTC). […] The reduction potential of HQTC is such that it can be combined with DHA to create a redox flow battery with a cell voltage of 0.5 V (FIG. 30). Further HQTC can also be combined with the molecules from the quinoxaline family, and the flavin family to yield redox flow batteries with the cell voltage in the range of 0.5 to 1 V. 1,2,4-trihydroxyanthraquinone (Purpurin) is claimed to be a negative electrode material suitable for operation in alkaline media.

The nature of data set [2]: Rotating disk electrode study of hydroxyl-substituted anthraquinones in NaOH. The settings on record: Hydroxy anthraquinones in NaOH. In kind it is physicochemical. From the text:
Bifunctional redox molecules can also be a molecule with different redox properties in various ranges of potentials. This type of molecule is typified by the substituted hydroxy anthraquinones. In this regard, redox properties of several substituted anthraquinones have been studies. Electrochemistry experiments on the rotating disk electrode confirm the existence of two diffusion limited regions separated by a significant potential difference of 0.5 V to 1.0 V for certain types of substitutions (FIG. 6). For these molecules, two different redox processes occur at different potentials. Those molecules which have hydroxyl substituents in positions such as 1,2- and 1, 4- are particularly suitable for this purpose.
In Table 2 below we summarize the properties of these types of substituted anthraquinones that can be used on both as positive and negative electrode materials and others that have similar moieties but are not suitable for this type of deployment. The use of these molecules is suitable for use both acidic and alkaline media as shown by the rotating electrode studies.

The nature of data set [3]: Rate of crossover through NAFION 117 membrane. In kind it is physicochemical. The settings on record: for crossover rate rank order: over 192 hours; for concentration appearing by crossover through the membrane: 192 hours. An excerpt:
In another embodiment, compounds for the first redox couple 22 and/or the second redox couple 32 of FIG. 1 that reduce crossover between the anode and cathode compartments are provided. The crossover of the redox active species across the cell is largely determined by the molecular size. Examples of the redox compounds of this embodiment include, but are not limited to, para-toluene sulfonic acid (p-TSA), 2,6-dimethyl-1,4-dihydroxy benzene 3-mono-sulfonic acid, 1,2-dihydroxybenzene-3,5-disulfonic acid (BQDS), and anthraquinone-2,7-disulfonic acid (AQDS). The rate of crossover of the various types of positive electrode materials through a NAFION® 117 membrane was measured. The concentration of p-TSA appearing by crossover through the membrane is found to be much higher than that of the DMDHMS and BQDS (FIG. 6). […] The crossover rate measured over a period of 192 hours provided a rank order of p-TSA>DMDHMS≈BQDS>>AQDS. This rank order correlates with molecular size. The molecules of smaller size will diffuse more readily through the proton conducting membrane. Therefore, it is claimed that by modifying the size of the molecule we can suppress or reduce crossover. The redox active molecules that are prone to crossover may be modified in the size by either applying substituent groups. Such substituent groups can be simple methyl groups, sulfonic acid groups, alkyl groups, branched alkyls such as tertiary butyl, aromatic groups such as phenyl or benzyl groups, multi-ring aromatic groups such as naphthyl, anthracenyl (with or without substituents) amino, quaternary amino, keto, carboxyl and quinone groups. Examples of such redox active molecules with substituents that are enhanced in molecular size include the following compounds having formula II, III, and IV: […]

Data set [4] can be described thus: Cyclic voltammetry and redox cell states of AMBSA. In kind it is physicochemical. The settings on record: FIG. 4.
Data set [5] can be described thus: Crossover rate through NAFION 324 versus NAFION 117 membrane. In kind it is physicochemical. The conditions noted are these: NAFION 324 (25-micron EW 1500 layer, 150-micron EW 1100 layer) vs NAFION 117 (EW 1100). From the text:
In a variation, the reduced rate of crossover of the redox active molecules is achieved by using a membrane with a higher equivalent weight of NAFION®. The membrane NAFION® 324, has a 25-micron layer of equivalent weight 1500 and a 150-micron layer of equivalent weight 1100. The crossover rate of DMDHMS through such a membrane is just 0.65 of that through a homogenous NAFION® 117 membrane that has an equivalent weight of 1100 throughout the membrane.

Data set [6] can be described thus: Charge and discharge cycling of organic redox flow cells. The conditions noted are these: cell with anthraquinone-2,7-disulfonic acid, 0.5 M each. From the text:
In another embodiment, the effects of crossover can be mitigated by using a mixture of positive and negative electrolyte materials in equimolar quantities at both the electrodes. When such a mixture is charged only the positive electrolyte component will undergo oxidation reaction at the positive electrode and the negative electrolyte material will undergo reduction reactions at the negative electrode. Since the concentration of the redox active species is identical even if crossover occurs, the positive electrolyte material occurred to the negative electrolyte side this change in concentration will be balanced by back diffusion. Thus, there might be self-discharge but no permanent capacity loss or compositional change of the electrolyte. Any two redox couples that qualify as positive and negative electrolyte materials can be mixed in equimolar proportions and used as the electrolyte. We have shown the feasibility of rechargeability of this type of mixed materials using DMDHMS and AQDS (FIG. 8). Nearly 100% of the charge input was returned during discharge.
Based on the electrode potentials, the DHA can serve as the negative electrolyte and the AQDS can serve as the positive electrolyte. […] The cell was charged and discharged at 8 mA/cm^2. The value of cell voltage was consistent with that expected from the reduction potential of the redox couples. […]

Setting [7] is: alkaline electrolyte, 1 M potassium hydroxide.

Regarding `O=C1c2cccc(O)c2C(=O)c2c(O)cccc21` [DHA, 1,8-dihydroxyanthraquinone], in data set [1] (1 M sodium hydroxide), the “electrochemical behavior (cyclic voltammogram)” value (“electrochemical behavior” for short) was “reversible electrochemical reaction” and the reduction potential entry is on record as “about −0.7 V”.
Consider `O=C1c2ccc(O)cc2C(=O)c2ccc(O)cc21` [2,6-dihydroxy anthraquinone], for which, in data set [2], the “Di-Couple Potential (yes/no)” value was “No” and the “E1/2(Volts) vs MMO” value is on record as −0.8 V.
As to `O=S(=O)(O)c1cc(O)c(O)c(S(=O)(=O)O)c1` [BQDS, 1,2-dihydroxybenzene-3,5-disulfonic acid], the “crossover rate rank order” value in data set [3] was “p-TSA>DMDHMS≈BQDS>>AQDS”.
On to `c1ccc2nccnc2c1` [quinoxaline], for which the “electrochemical behavior” value in data set [1] (setting [7]) is given as “reversible electrochemical behavior”.
In the case of `Cc1ccc(S(=O)(=O)O)cc1` [p-TSA, para-toluene sulfonic acid, reference compound], in data set [3], the “concentration appearing by crossover through the membrane” value is recorded as “much higher” and the “crossover rate rank order” value is “p-TSA>DMDHMS≈BQDS>>AQDS”.
With `O=C1c2cccc(O)c2C(=O)c2cccc(O)c21` [1,5-dihydroxy anthraquinone], in data set [2], the “Di-Couple Potential (yes/no)” value is reported as “No” and the “E1/2(Volts) vs MMO” value is −0.65 V.
`O=C1c2ccccc2C(=O)c2c(O)c(O)cc(O)c21` [1,2,4-trihydroxy anthraquinone]: in data set [2], the “Di-Couple Potential (yes/no)” value was “Yes”, the “Di-Couple Potential difference” value was 840 mV and the “E1/2(Volts) vs MMO” value was −0.84 V.
The matching figures for `O=C1c2ccccc2C(=O)c2c1ccc(O)c2O` [difference1,2-dihydroxy anthraquinone, 1,2-dihydroxy anthraquinone]: “Yes”, 1 V and −0.73 V.
In the case of `O=C(O)c1c(O)c(C(=O)O)c(C(=O)O)c(O)c1C(=O)O` [HQTC, hydroquinonetetracarboxylic acid], the “electrochemical behavior” value in data set [1] (setting [7]) was “reversible electrochemical behavior with two different sets of peaks”.
On to `O=C1c2ccccc2C(=O)c2c(O)ccc(O)c21` [1,4-dihydroxy anthraquinone], for which, in data set [2], the “Di-Couple Potential (yes/no)” value is “Yes”, the “Di-Couple Potential difference” value came to 880 mV and the “E1/2(Volts) vs MMO” value was −0.63 V.
Take `O=C1c2ccccc2C(=O)c2cc(Cc3cc(O)cc(S(=O)(=O)O)c3O)ccc21` [AMBSA, 2-anthraquinonemethyl (p-benzoquinol sulfonic acid)]: the cyclic voltammogram peaks entry in data set [4] is “two distinct peaks”.
For `Cc1cc(O)c(S(=O)(=O)O)c(C)c1O` [DMDHMS, 2,6-dimethyl-1,4-dihydroxybenzene-3-sulfonic acid], the “crossover rate rank order” value in data set [3] is reported as “p-TSA>DMDHMS≈BQDS>>AQDS”. The “crossover rate through NAFION 324 relative to NAFION 117” value in data set [5] was 0.65.
For the compound `O=C1c2ccc(S(=O)(=O)O)cc2C(=O)c2cc(S(=O)(=O)O)ccc21` [AQDS, anthraquinone-2,7-disulfonic acid], in data set [1] (1 M sodium hydroxide), the “electrochemical behavior” value is given as “reversible electrochemical behavior” and the reduction potential result is reported as “about −0.35 V”. Moreover, in data set [3], the “concentration appearing by crossover through the membrane” value is “not detected” and the “crossover rate rank order” value is listed as “p-TSA>DMDHMS≈BQDS>>AQDS”.
Consider `Cc1cc(O)c(C)c(S(=O)(=O)O)c1O` [2,5-dimethyl-1,4-dihydroxybenzene-3-sulfonic acid], for which the “resistance to Michael reaction, cycles of charge and discharge” value in data set [6] is reported as “at least 100 cycles”.
In the case of `O=C1c2ccccc2C(=O)c2c1cc(S(=O)(=O)O)c(O)c2O` [1,2-dihydroxy, 3-sulfonic acid anthraquinone], in data set [2], the “Di-Couple Potential (yes/no)” value was “Yes”, the “Di-Couple Potential difference” value came out at 930 mV and the “E1/2(Volts) vs MMO” value is reported as −0.75 V.

(Values after patent publication US10833345B2, “Materials for high-performance aqueous organic redox flow batteries” (UNIVERSITY OF SOUTHERN CALIFORNIA, priority 2016, dated 2020).)
